In patent US6486350B1, “Biological reagents and methods for determining the mechanism in the generation of β-amyloid peptide” (Elan Pharmaceuticals Inc., priority 1998, dated 2002):
pIC50, pKd, pKi: −log10 of the molar value. Values belong to the compound of their own block, whether it stands above or below them.

Columns and labels:
[1] = log P; format: physicochemical
[2] = test system: Aβ production in 293 cells; assay: Inhibition of Aβ production in 293 cells; format: cell-based; conditions: Homo sapiens, HEK293, whole cell
[3] = test system: high affinity Compound 1 (Aβ lowering) site on SWE293 cells; assay: Flow cytometry labelling of SWE293 cells with Compound 3; format: cell-based
Method: SWE293 cells were successfully labelled with 5 nM of Compound 3 for flow cytometry analysis (excitation 488 nm, emission 510 (+/−10) nm) to give a four fold increase in fluorescence intensity over background unlabeled cells, consistent with the binding site being in relatively low abundance. At 5 nM concentration this compound only labels the high affinity Compound 1 (Aβ lowering) site. In the presence of 1 μM 5-(S)-[N′-((S)-3,5-Difluorophenyl-α-hydroxyacetyl)-L-alaninyl]amino-7-methyl-5,7-dihydro-6H-dibenz[b,d]azepin-6-one (Example 29), (which is sufficient to completely displace all specifically bound Compound of Example 28 at >>5 nM)), the signal was reduced by 20% (p<0.001), after background subtraction. Compound 3 is obviously a very hydrophobic molecule (log P>3), and the non displaceable signal is almost certainly due to non-specific partitioning into cell membranes.

[4] = test system: low affinity Compound 1 site, membranes obtained from 293 cells; assay: Competition with 3H-Compound 1 binding to membranes from 293 cells, low affinity site; conditions: 293 cell membranes, n=2
Method: (§1) The compound of Example 28 (Compound 3) was also tested. The high affinity ^3H-N-[8-N′-((2-(R/S)-hydroxy-2-(3,5-difluorophenyl)-acetyl-L-alaninyl)-L-phenylglycine)-3,6-dioxaoctyl]-4,4-difluoro-5,7-dimethyl-4-bora-3α,4α-diaza-s-indacene-3-propionamide (Compound 3) binding site mediates the Aβ lowering activity of Compound 1, whereas the low affinity site is irrelevant to Aβ lowering. […] This wide separation in high and low affinity Ki's (7741.5; n=2) affords a wide window of concentrations of Compound 3 where binding of the compound is almost exclusively to the high affinity Compound 1 site.

[5] = molecular target: high affinity Compound 1 binding site (Aβ lowering) in 293 membranes (Homo sapiens, UniProt P49768); assay: Saturation binding of 3H-Compound 1 in 293 membranes, high affinity site
Method: (§2) The pharmacological profile of ^3H-5-(S)-(N′-((S)-(+)-2-Hydroxy-3-methylbutyryl)-L-alaninyl)amino-7-methyl-5,7-dihydro-6H-dibenz[b,d]azepin-6-one (Compound 1 from Example 30) has been studied in 293 membranes. There are two distinct binding components in the membrane preparations. Saturation binding analysis utilizing 0-50 pM and 0-150 nM ^3H-Compound 1 reveal two sites (KD1=52.7 pM [Bmax1=710 fmol/mg protein]; KD2=32.5 nM [Bmax2=34.4 pmol/mg protein]).
as §1

[6] = molecular target: low affinity Compound 1 site in 293 membranes; assay: Saturation binding of 3H-Compound 1 in 293 membranes, low affinity site; conditions: 0-150 nM 3H-Compound 1, 293 membranes, read-out: KD2
Method: as §2, §1

logP [1]: > 3
Compound: Cc1cc(C)n2c1C=C1C=CC(CCC(=O)NCCOCCOCCNC(=O)C(NC(=O)C(C)NC(=O)C(O)c3cc(F)cc(F)c3)c3ccccc3)=[N+]1[B-]2(F)F (racemic) [Compound 3, N-[8-N′-((2-(R/S)-hydroxy-2-(3,5-difluorophenyl)-acetyl-L-alaninyl)-L-phenylglycinyl)amino-3,6-dioxaoctyl]-4,4-difluoro-5,7-dimethyl-4-bora-3α,4α-diaza-s-indacene-3-propionamide]
pIC50 [2]: 9.23
increase in fluorescence intensity over background unlabeled cells ([3]; SWE293 cells labelled with 5 nM, flow cytometry, excitation 488 nm, emission 510 (+/−10) nm): four fold
pKi [4]: 6.24

Bmax1 [5]: 710 fmol/mg protein
pKd [6]: 7.49
Compound: CC(C)[C@H](O)C(=O)N[C@@H](C)C(=O)NC1C(=O)N(C)c2ccccc2-c2ccccc21 (stereo partly drawn) [Compound 1, 5-(S)-(N′-((S)-(+)-2-Hydroxy-3-methylbutyryl)-L-alaninyl)amino-7-methyl-5,7-dihydro-6H-dibenz[b,d]azepin-6-one]

Compound: C[C@H](NC(=O)[C@@H](O)c1cc(F)cc(F)c1)C(=O)N[C@@H]1C(=O)N(C)c2ccccc2-c2ccccc21 [Example 29, 5-(S)-[N′-((S)-3,5-Difluorophenyl-α-hydroxyacetyl)-L-alaninyl]amino-7-methyl-5,7-dihydro-6H-dibenz[b,d]azepin-6-one]
reduction of Compound 3 fluorescence signal ([3]; 1 μM competitor, SWE293 cells labelled with 5 nM Compound 3, after background subtraction, p<0.001): 20%
